Results from PubChem BioAssay AID256 (DTP/NCI, 2004).
Values joined by “and” are separate entries in the source; they are usually repeats but may differ in a detail not shown here. Equal values may be shown once. Toxic doses and inconclusive results are not listed.

Test system: CD2F1 mice, L1210 leukemia ip, survival T/C
Experiment: NCI In Vivo Anticancer Drug Screen. Data for tumor model L1210 Leukemia (intraperitoneal) in CD2F1 (CDF1) mice
Conditions: higher = longer survival
How it was run: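 Implant tumor; dose compound or vehicle; measure endpoint in both groups; report treated divided by control.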

[1] = endpoint: mean survival time, dose: 100.0 mg/kg/injection, schedule: Q04DX003 (ip), vehicle: saline with Tween-80
[2] = endpoint: mean survival time, dose: 200.0 mg/kg/injection, schedule: Q04DX003 (ip), vehicle: saline with Tween-80
[3] = endpoint: mean survival time, dose: 400.0 mg/kg/injection, schedule: Q04DX003 (ip), vehicle: saline with Tween-80
[4] = endpoint: mean survival time, dose: 50.0 mg/kg/injection, schedule: Q01DX009 (ip), vehicle: saline
[5] = endpoint: mean survival time, dose: 100.0 mg/kg/injection, schedule: Q01DX009 (ip), vehicle: saline
[6] = endpoint: mean survival time, dose: 50.0 mg/kg/injection, schedule: Q01DX001 (ip), vehicle: saline
[7] = endpoint: mean survival time, dose: 100.0 mg/kg/injection, schedule: Q01DX001 (ip), vehicle: saline
[8] = endpoint: mean survival time, dose: 200.0 mg/kg/injection, schedule: Q01DX001 (ip), vehicle: saline
[9] = endpoint: mean survival time, dose: 400.0 mg/kg/injection, schedule: Q01DX001 (ip), vehicle: saline
[10] = endpoint: mean survival time, dose: 200.0 mg/kg/injection, schedule: Q01DX009 (ip), vehicle: saline
[11] = endpoint: mean survival time, dose: 100.0 mg/kg/injection, schedule: Q01DX009 (ip), vehicle: saline with Tween-80
[12] = endpoint: mean survival time, dose: 200.0 mg/kg/injection, schedule: Q01DX009 (ip), vehicle: saline with Tween-80
[13] = endpoint: mean survival time, dose: 100.0 mg/kg/injection, schedule: Q04DX003 (ip), vehicle: saline
[14] = endpoint: mean survival time, dose: 200.0 mg/kg/injection, schedule: Q04DX003 (ip), vehicle: saline
[15] = endpoint: mean survival time, dose: 400.0 mg/kg/injection, schedule: Q04DX003 (ip), vehicle: saline
[16] = endpoint: mean survival time, dose: 12.5 mg/kg/injection, schedule: Q04DX003 (ip), vehicle: saline
[17] = endpoint: mean survival time, dose: 25.0 mg/kg/injection, schedule: Q04DX003 (ip), vehicle: saline
[18] = endpoint: mean survival time, dose: 50.0 mg/kg/injection, schedule: Q01DX009 (ip), vehicle: saline with Tween-80

Cc1ccc(S(=O)(=O)OCCCCCOS(=O)(=O)c2ccc(C)cc2)cc1 (tested in a mixture with another compound)
T/C (endpoint: mean survival time, dose: 100.0 mg/kg/injection, schedule: Q04DX002 (ip), vehicle: saline with Tween-80): 102 % of control
T/C (endpoint: mean survival time, dose: 200.0 mg/kg/injection, schedule: Q04DX002 (ip), vehicle: saline with Tween-80): 94 % of control
T/C (endpoint: mean survival time, dose: 400.0 mg/kg/injection, schedule: Q04DX002 (ip), vehicle: saline with Tween-80): 94 % of control

Cn1c(=O)c2c(nc(N3CCOCC3)n2CC(O)CF)n(C)c1=O (stereo not given)
T/C (endpoint: mean survival time, dose: 12.5 mg/kg/injection, schedule: Q01DX005 (ip), vehicle: distilled water + Tween-80): 95 % of control
T/C (endpoint: mean survival time, dose: 25.0 mg/kg/injection, schedule: Q01DX005 (ip), vehicle: distilled water + Tween-80): 98 % of control
T/C (endpoint: mean survival time, dose: 50.0 mg/kg/injection, schedule: Q01DX005 (ip), vehicle: distilled water + Tween-80): 103 % of control
T/C (endpoint: mean survival time, dose: 100.0 mg/kg/injection, schedule: Q01DX005 (ip), vehicle: distilled water + Tween-80): 97 % of control
T/C (endpoint: mean survival time, dose: 200.0 mg/kg/injection, schedule: Q01DX005 (ip), vehicle: distilled water + Tween-80): 104 % of control

N#Cc1c(F)c(F)c(Oc2c(F)c(F)c(F)c(F)c2F)c(F)c1Oc1c(F)c(F)c(F)c(F)c1F
T/C [1]: 96 % of control
T/C [2]: 93 % of control
T/C [3]: 88 % of control

CC(C)C(Br)C(=O)NC(Cc1ccccc1)C(=O)O (stereo not given)
T/C [1]: 101 % of control
T/C [2]: 110 % of control
T/C [3]: 122 % of control

NCCc1cc(O)c(O)cc1O
T/C [4]: 93 % of control
T/C [5]: 104 % of control

O=c1[nH]cnc2c1ncn2C1OC(CO)C(O)C1O (stereo not given)
T/C [6]: 100 % of control
T/C [7]: 100 % of control
T/C [8]: 97 % of control
T/C [9]: 100 % of control

O=C(NC(=O)c1ccccc1)NC1=C(Cl)C(=O)c2ccccc2C1=O
T/C (endpoint: mean survival time, dose: 100.0 mg/kg/injection, schedule: Q01DX001 (ip), vehicle: other): 106 % of control
T/C (endpoint: mean survival time, dose: 200.0 mg/kg/injection, schedule: Q01DX001 (ip), vehicle: other): 104 % of control
T/C (endpoint: mean survival time, dose: 400.0 mg/kg/injection, schedule: Q01DX001 (ip), vehicle: other): 109 % of control

CCO[Si](C)(OCC)OCC
T/C [4]: 101 % of control
T/C [5]: 101 % of control
T/C [10]: 96 % of control

O=c1c(O)c(O)c1=O.[NH2-].[NH2-].[NH2-].[NH2-].[NH2-].[Ru+5]
T/C (endpoint: median survival time, dose: 3.12 mg/kg/injection, schedule: Q01DX005 (ip), vehicle: saline): 119 % of control
T/C (endpoint: median survival time, dose: 3.12 mg/kg/injection, schedule: Q01DX005 (ip), vehicle: suspension in saline): 114 % of control
T/C (endpoint: median survival time, dose: 6.25 mg/kg/injection, schedule: Q01DX005 (ip), vehicle: saline): 122 % of control
T/C (endpoint: median survival time, dose: 6.25 mg/kg/injection, schedule: Q01DX005 (ip), vehicle: suspension in saline): 114 % of control
T/C (endpoint: median survival time, dose: 12.5 mg/kg/injection, schedule: Q01DX005 (ip), vehicle: suspension in saline): 109 % of control
T/C (endpoint: median survival time, dose: 25.0 mg/kg/injection, schedule: Q01DX005 (ip), vehicle: saline): 116 % of control

c1ccc(CNCCCNCc2ccccn2)nc1
T/C [7]: 100 % of control
T/C [8]: 100 % of control

Cc1ccc(Cl)c(S(=O)(=O)F)c1
T/C [11]: 88 % of control
T/C [1]: 106 % of control
T/C [12]: 103 % of control
T/C [2]: 93 % of control
T/C (endpoint: mean survival time, dose: 400.0 mg/kg/injection, schedule: Q01DX009 (ip), vehicle: saline with Tween-80): 101 % of control
T/C [3]: 100 % of control

Cc1cccc(-c2nn[nH]n2)n1
T/C (endpoint: mean survival time, dose: 12.5 mg/kg/injection, schedule: Q01DX001 (ip), vehicle: saline with Tween-80): 98 % of control
T/C (endpoint: mean survival time, dose: 25.0 mg/kg/injection, schedule: Q01DX001 (ip), vehicle: saline with Tween-80): 90 % of control
T/C [7]: 103 % of control
T/C [8]: 113 % of control
T/C [9]: 101 % of control

Clc1ccc(N=C(Nc2ccc(Cl)cc2)c2ccccc2)cc1
T/C [1]: 104 % of control
T/C [2]: 110 % of control
T/C [3]: 98 % of control

O=C1Nc2ccc([N+](=O)[O-])c3c(C(=O)O)ccc1c23
T/C [1]: 98 % of control
T/C [2]: 104 % of control
T/C [3]: 101 % of control

NC(=O)NC1OC(CO)C(O)C(O)C1O (stereo not given)
T/C [13]: 100 % of control
T/C [14]: 100 % of control
T/C [15]: 105 % of control

ClCCN(Cc1ccccc1)Cc1ccccc1
T/C (endpoint: mean survival time, dose: 3.13 mg/kg/injection, schedule: Q01DX009 (ip), vehicle: saline with Tween-80): 100 % of control
T/C (endpoint: mean survival time, dose: 6.25 mg/kg/injection, schedule: Q01DX009 (ip), vehicle: saline with Tween-80): 102 % of control
T/C (endpoint: mean survival time, dose: 12.5 mg/kg/injection, schedule: Q01DX009 (ip), vehicle: saline with Tween-80): 96 % of control

CCCC(CC)(C[NH-])C[NH-].[Cl][Pt+2][Cl]
T/C (endpoint: mean survival time, dose: 6.25 mg/kg/injection, schedule: Q04DX003 (ip), vehicle: saline): 120 % of control and 109 % of control
T/C [16]: 121 % of control and 109 % of control
T/C [17]: 114 % of control
T/C [13]: 158 % of control
T/C [14]: 114 % of control and 105 % of control

CCCCCCCCCCCCCCCCCC[N+]1(Cc2ccccc2)CCOCC1
T/C (endpoint: mean survival time, dose: 25.0 mg/kg/injection, schedule: Q01DX009 (ip), vehicle: saline with Tween-80): 103 % of control
T/C [18]: 115 % of control
T/C [11]: 91 % of control and 100 % of control

CCN(CC)CCC(=O)c1ccc2ccc3ccccc3c2c1
T/C [6]: 93 % of control
T/C [7]: 89 % of control

CCSc1nc(C)cc(Cl)n1
T/C [18]: 102 % of control
T/C [11]: 104 % of control
T/C [12]: 105 % of control

COc1cc(/C=N/N2C(=O)CSC2=S)ccc1OCc1ccccc1
T/C (endpoint: mean survival time, dose: 100.0 mg/kg/injection, schedule: Q01DX001 (ip), vehicle: saline with Tween-80): 95 % of control
T/C (endpoint: mean survival time, dose: 200.0 mg/kg/injection, schedule: Q01DX001 (ip), vehicle: saline with Tween-80): 91 % of control
T/C (endpoint: mean survival time, dose: 400.0 mg/kg/injection, schedule: Q01DX001 (ip), vehicle: saline with Tween-80): 89 % of control

CSC(=S)NNC(=O)c1cccc(S(=O)(=O)F)c1
T/C (endpoint: mean survival time, dose: 75.0 mg/kg/injection, schedule: Q01DX001 (ip), vehicle: saline): 97 % of control
T/C (endpoint: mean survival time, dose: 150.0 mg/kg/injection, schedule: Q01DX001 (ip), vehicle: saline): 96 % of control
T/C (endpoint: mean survival time, dose: 300.0 mg/kg/injection, schedule: Q01DX001 (ip), vehicle: saline): 96 % of control

C=CCn1nnnc1N
T/C [13]: 101 % of control
T/C [14]: 103 % of control
T/C [15]: 101 % of control

NCCCCCC(=O)O
T/C (endpoint: mean survival time, dose: 25.0 mg/kg/injection, schedule: Q01DX001 (ip), vehicle: saline): 98 % of control
T/C [6]: 98 % of control
T/C [7]: 93 % of control
T/C [5]: 94 % of control
T/C [13]: 89 % of control
T/C [10]: 96 % of control
T/C [14]: 98 % of control
T/C (endpoint: mean survival time, dose: 400.0 mg/kg/injection, schedule: Q01DX009 (ip), vehicle: saline): 97 % of control
T/C [15]: 102 % of control

NCC(S)c1ccc(Cl)cc1 (stereo not given)
T/C [16]: 98 % of control
T/C [17]: 93 % of control
T/C (endpoint: mean survival time, dose: 50.0 mg/kg/injection, schedule: Q04DX003 (ip), vehicle: saline): 96 % of control

CC(=O)NC(C)C(C)(C)O (stereo not given)
T/C [13]: 91 % of control
T/C [14]: 101 % of control
T/C [15]: 95 % of control

CCCCCCCCCCCC[N+]1(C)CCC[N+](C)(CCCCCCCCCCCC)CC1 (stereo not given)
T/C (endpoint: mean survival time, dose: 18.7 mg/kg/injection, schedule: Q01DX001 (ip), vehicle: saline with Tween-80): 116 % of control
T/C (endpoint: mean survival time, dose: 37.5 mg/kg/injection, schedule: Q01DX001 (ip), vehicle: saline with Tween-80): 98 % of control
T/C (endpoint: mean survival time, dose: 75.0 mg/kg/injection, schedule: Q01DX001 (ip), vehicle: saline with Tween-80): 113 % of control and 101 % of control

c1ccc([B-]2([C+]3CCCCC3)N3CCCCC3C3CCCCN32)cc1 (stereo not given)
T/C (endpoint: mean survival time, dose: 3.12 mg/kg/injection, schedule: Q01DX009 (ip), vehicle: saline): 90 % of control
T/C (endpoint: mean survival time, dose: 6.25 mg/kg/injection, schedule: Q01DX009 (ip), vehicle: saline): 95 % of control
T/C (endpoint: mean survival time, dose: 12.5 mg/kg/injection, schedule: Q01DX009 (ip), vehicle: saline): 101 % of control
T/C (endpoint: mean survival time, dose: 25.0 mg/kg/injection, schedule: Q01DX009 (ip), vehicle: saline): 102 % of control
T/C [4]: 86 % of control

Cc1c(N=Nc2cc[n+]([O-])cc2)ccc(N(C)C)c1C
T/C [1]: 102 % of control
T/C [2]: 97 % of control

CCN(CC)/C(N)=N\c1nc(C)c2cc(Cl)ccc2n1
T/C [7]: 103 % of control
